Source: patent US6348445B1, “Biologically active peptides with reduced toxicity in animals and a method for preparing same” (priority 1992, dated 2002)
*1 amine or outer side, *2 acyl side, *3 side chain or, on linkers, in order; H or OH if unused. Where a SMILES comes first, the peptide text is derived from it. The star is where a group is joined. X2 = CCCCCCCCCCCCC/C=C/[C@@H](O)[C@H](CO)N*; Myristoyl = CCCCCCCCCCCCCC(=O)*; Suc = O=C(CCC(=O)[*:2])[*:1]; Heptanoyl = CCCCCCC(=O)*

Experiments:
Type in all cases: cell-based
[1] = tested on: P. aeruginosa strain ATCC 27853; conditions: ATCC 27853
Excerpt: (§1) Table I, which follows, indicates the Minimal Inhibitory Concentration (MIC) in […] of various peptides against S.aureus strain ATCC 25923(S), P. aeruginosa strain ATCC 27853(P), E. coli ATCC strain 25922(E), and C. 4albicans (CA). […] The peptides are unsubstituted at the N-terminal; substituted with an acetyl group at the N-terminal, as indicated by Ac-; substituted with an octanoyl group at the N-terminal, as indicated by Oct-; substituted with spinogosine, as indicated by Sph-; substituted with a succinyl group, as indicated by Suc-; substituted with a hexanoyl group, as indicated by Hex-; substituted with a heptanoyl group, as indicated by Hep-; substituted with a valeryl group, as indicated by Val-; substituted with a myristryl group, as indicated by Myr-; or substituted with an ibuprofyl group, as indicated by Ibu-;
(§2) The procedure for the anti-bacterial assay is based upon the guidelines of the National Committee for Clinical Laboratory Standards, Document M7-T2, Volume 8, No. 8, 1988, which document is entirely incorporated herein by reference.
(§3) Stock solutions of peptides, with and without the appropriate substitutions, were prepared at a concentration of 512 μg/ml in sterile deionized distilled water and stored at −70° C.
(§4) The stock peptide solution was diluted in serial dilutions (1:2) down the wells of a microtiter plate so that the final concentrations of peptides in the wells were 0.25, 0.50, 1, 2, 4, 8, 16, 32, 64, 128 and 256 μg/ml. 1-5×10^5 CFUs/ml of either S. aureus ATCC 25923, E. coli ATCC 25922, P. aeruginosa ATCC 27853, or C. albicans, were added to the wells in full strength Mueller Hinton broth (BBL 11443) from a mid-log culture. The inoculum was standardized spectrophotometrically at 600 nm and was verified by colony counts. The plates were incubated for 16-20 hours at 37° C., and the minimal inhibitory concentration (MIC) for each peptide was determined. Minimal inhibitory concentration is defined as the lowest concentration of peptide which produces a clear well in the microtiter plate. The minimal inhibitory concentration of each of the peptides with and/or without the appropriate substitutions is given in Table I below.
(§5) The in vitro anti-microbial activities of the methane sulfonate derivatives were determined according to the methods described in Examples 1 and 2. The activities against ATCC strains of S. aureus, E. coli, P. aeruginosa, and C. albicans, and the hemolysis of red blood cells were compared to the parent compound (Table IV). The activities for Compound 843 (Oct-SEQ ID NO:143) methane sulfonate against clinical strains of P. aeruginosa isolated from cystic fibrosis patients were compared to the parent compound (Table V). The activity for Compound 469 (Oct-SEQ ID NO:27) methane sulfonate against P. gingivalis was compared to the parent compound (Table VI).

C. albicans = tested on: C. albicans
Excerpt: as §1, §2, §3, §4

[2] = tested on: E. coli ATCC strain 25922; assay: Minimal Inhibitory Concentration, microtiter broth dilution
Excerpt: as §1, §2, §3, §4, §5

Compound | Minimal Inhibitory Concentration P [1] | Minimal Inhibitory Concentration CA (C. albicans) [µg/mL] | Minimal Inhibitory Concentration E ([2]; ATCC strain 25922) | Minimal Inhibitory Concentration E ([2]; E. coli ATCC strain 25922, Table I)
CCCCCCCCCCCCCC(=O)N[C@@H](CC(C)C)C(=O)N[C@@H](CCCCN)C(=O)N[C@@H](CCCCN)C(=O)N[C@@H](CC(C)C)C(=O)N[C@@H](CC(C)C)C(=O)N[C@@H](CCCCN)C(=O)N[C@@H](CCCCN)C(=O)N[C@@H](CC(C)C)C(=O)N[C@@H](CCCCN)C(=O)N[C@@H](CCCCN)C(=O)N[C@@H](CC(C)C)C(N)=O [Myr-(SEQ ID NO: 110)-NH2] (Myristoyl-LKKLLKKLKKL-NH2) | 16 µg/mL | >256 | 16 µg/mL | –
CCCCCCC(=O)N[C@@H](CC(C)C)C(=O)N[C@@H](CCCCN)C(=O)N[C@@H](CCCCN)C(=O)N[C@@H](CC(C)C)C(=O)N[C@@H](CC(C)C)C(=O)N[C@@H](CCCCN)C(=O)N[C@@H](CCCCN)C(=O)N[C@@H](CC(C)C)C(=O)N[C@@H](CCCCN)C(=O)N[C@@H](CCCCN)C(=O)N[C@@H](CC(C)C)C(N)=O [Hep-(SEQ ID NO: 110)-NH2] (Heptanoyl-LKKLLKKLKKL-NH2) | 4 µg/mL | 32 | 16 µg/mL | –
CC[C@H](C)[C@H](NC(=O)[C@H](CCCCN)NC(=O)CNC(=O)[C@H](C)NC(=O)[C@@H](NC(=O)[C@H](CCCCN)NC(=O)[C@H](C)NC(=O)[C@@H](NC(=O)[C@H](CCCCN)NC(=O)CNC(=O)[C@H](C)NC(=O)[C@@H](NC(=O)[C@H](CCCCN)NC(=O)[C@H](C)NC(=O)[C@@H](NC(=O)[C@H](CCCCN)NC(=O)CNC(=O)[C@H](C)NC(=O)[C@@H](NC(=O)[C@H](CCCCN)NC(=O)CCC(=O)O)[C@@H](C)CC)[C@@H](C)CC)[C@@H](C)CC)[C@@H](C)CC)[C@@H](C)CC)C(=O)N[C@@H](C)C(N)=O [Suc-((SEQ ID NO: 27)-NH2] (Suc-KIAGKIAKIAGKIAKIAGKIA-NH2) | >256 µg/mL | 128 | 32 µg/mL | –
H-LKKLLKKLKKL-NH2 [(SEQ ID NO: 110)-NH2] | 32,64 μg/ml | – | – | 64,128 μg/ml
Ac-LLKKLKKLLKKL-NH2 [Ac-(SEQ ID NO: 113)-NH2] | 64 µg/mL | – | 64 µg/mL | –
Ac-KIAGKIAKIAGKIAKIAGKIA-NH2 [Ac-(SEQ ID NO: 27)-NH2] | 128 µg/mL | – | 8 µg/mL | –
H-KIAGKIAKIAGKIAKIAGKIA-OH [(SEQ ID NO: 27)-OH, (Lys Ile Ala Gly Lys Ile Ala)3] | 128 µg/mL | – | 8 µg/mL | –
H-LLKKLKKLLKKL-NH2 [(SEQ ID NO: 113)-NH2] | 8,16 μg/ml | – | 32 µg/mL | –
Ac-LKKLLKKLKKL-NH2 [Ac-(SEQ ID NO: 110)-NH2] | 8,16 μg/ml | – | 32,64 μg/ml | –
CCCCCCCCCCCCC/C=C/[C@@H](O)[C@H](CO)NC(=O)CCC(=O)N[C@@H](CCCCN)C(=O)N[C@H](C(=O)N[C@@H](C)C(=O)NCC(=O)N[C@@H](CCCCN)C(=O)N[C@H](C(=O)N[C@@H](C)C(=O)N[C@@H](CCCCN)C(=O)N[C@H](C(=O)N[C@@H](C)C(=O)NCC(=O)N[C@@H](CCCCN)C(=O)N[C@H](C(=O)N[C@@H](C)C(=O)N[C@@H](CCCCN)C(=O)N[C@H](C(=O)N[C@@H](C)C(=O)NCC(=O)N[C@@H](CCCCN)C(=O)N[C@H](C(=O)N[C@@H](C)C(N)=O)[C@@H](C)CC)[C@@H](C)CC)[C@@H](C)CC)[C@@H](C)CC)[C@@H](C)CC)[C@@H](C)CC [Sph-Suc-(SEQ ID NO: 27)-NH2] ({X2-Suc}-KIAGKIAKIAGKIAKIAGKIA-NH2) | >256 µg/mL | – | 32 µg/mL | –
